From patent US11365192B2, “Pyridine compound substituted with azole” (TAISHO PHARMACEUTICAL CO., LTD., priority 2017, dated 2022) come the findings set out here.

For one experiment, the target named is human CYP4A11 (Homo sapiens (Human), UniProt Q02928). The experiment is described as follows: Inhibition test against 20-HETE producing enzyme CYP4A11 (luciferine derivative, luminescence). It is filed as biochemical. The settings on record: E. coli membrane fraction expressing human CYP4A11, 60 μM luciferine derivative, room temperature 60 minutes. Here is the method:
(§1) (1) Inhibition Test for Each Compound of the Present Invention Against 20-HETE Producing Enzymes (CYP4F2 and CYP4A11)
(§2) In the CYP4F2 inhibition test, the reaction solution containing each compound [final concentration of 50 mM, KPO4 (pH 7.4), 2.5 μM luciferine derivative, and 1 mM NADPH] was added to an Escherichia coli membrane fraction (100 μg/mL protein) in which human CYP4F2 had been expressed. In the CYP4A11 inhibition test, the reaction solution containing each compound [final concentration of 100 mM, Tris-HCl (pH 7.5), 60 μM luciferine derivative, 1.3 mM NADP^+, 3.3 mM Glucose 6-Phosphate, 3.3 mM MgCl2, and 0.4 U/mL Glucose 6-Phosphate dehydrogenase] was added to an Escherichia coli membrane fraction (100 μg/mL protein) in which human CYP4A11 had been expressed. Following this, the membrane fraction was left to stand at room temperature for 60 minutes to perform an enzymatic reaction. After the reaction, a luciferine detection reagent was added, and the luminescence value was measured using a plate reader. By using that value, the percent inhibition of 20-HETE producing enzyme (%) was calculated according to the equation described below, and the 50% inhibitory concentration (IC50 value) for each compound was calculated. Percent inhibition of 20-HETE producing enzyme (%)=[1−(A−B)/(C−B)]*100
(§3) A: Luminescence value with addition of compound
(§4) B: Luminescence value without addition of compound and enzyme

For the next experiment, the target named is human CYP4F2 (Homo sapiens (Human), UniProt P78329). The experiment is described as follows: Inhibition test against 20-HETE producing enzyme CYP4F2 (luciferine derivative, luminescence). It is filed as biochemical. The settings on record: E. coli membrane fraction expressing human CYP4F2, 2.5 μM luciferine derivative, room temperature 60 minutes. Here is the method: as §1, §2, §3, §4
human CYP4F2, sequence (P78329 5-520): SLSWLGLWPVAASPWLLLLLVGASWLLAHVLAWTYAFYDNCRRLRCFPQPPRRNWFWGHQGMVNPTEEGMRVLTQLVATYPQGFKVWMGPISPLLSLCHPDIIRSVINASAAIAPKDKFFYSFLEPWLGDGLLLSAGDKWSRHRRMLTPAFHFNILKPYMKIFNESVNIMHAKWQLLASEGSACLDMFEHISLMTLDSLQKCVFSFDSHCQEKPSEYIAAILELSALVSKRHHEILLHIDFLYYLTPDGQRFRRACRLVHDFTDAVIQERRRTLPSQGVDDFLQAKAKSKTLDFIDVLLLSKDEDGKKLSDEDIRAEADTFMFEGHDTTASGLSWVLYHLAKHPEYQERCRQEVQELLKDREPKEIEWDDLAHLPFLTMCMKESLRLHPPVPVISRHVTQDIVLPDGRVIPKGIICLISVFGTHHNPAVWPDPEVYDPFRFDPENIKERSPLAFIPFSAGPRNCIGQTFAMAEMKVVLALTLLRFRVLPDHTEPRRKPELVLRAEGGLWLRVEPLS

pIC50: −log10 of the molar value. Bounds are passed on as bounds.

human CYP4A11, sequence (Q02928 5-519): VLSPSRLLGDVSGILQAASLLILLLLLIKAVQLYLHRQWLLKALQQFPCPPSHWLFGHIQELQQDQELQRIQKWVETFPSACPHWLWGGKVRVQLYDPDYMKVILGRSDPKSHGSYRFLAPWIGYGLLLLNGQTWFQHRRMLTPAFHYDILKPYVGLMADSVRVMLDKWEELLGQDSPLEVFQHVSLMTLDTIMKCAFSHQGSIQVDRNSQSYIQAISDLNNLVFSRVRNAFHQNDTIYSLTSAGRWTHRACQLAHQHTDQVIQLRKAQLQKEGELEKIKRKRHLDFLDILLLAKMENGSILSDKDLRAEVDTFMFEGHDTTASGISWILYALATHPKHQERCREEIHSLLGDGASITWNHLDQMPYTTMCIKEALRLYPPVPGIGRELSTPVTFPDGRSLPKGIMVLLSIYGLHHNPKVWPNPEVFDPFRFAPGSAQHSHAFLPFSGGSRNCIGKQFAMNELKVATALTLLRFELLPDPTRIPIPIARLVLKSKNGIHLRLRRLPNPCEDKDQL

The term pIC50 denotes the negative decadic logarithm of the IC50, by convention in mol/L. Read a low pIC50 as a high IC50. For the molecule `CC(C)(CCc1cc(COc2ccc(-c3ccn[nH]3)nc2)ccn1)C(=O)O` [Example 1-38], the negative logarithm of the IC50 (pIC50) at human CYP4A11 is 7.38; against human CYP4F2, 5.92.

In the case of `CC(C)(CCc1cccc(COc2ccc(-c3ccn[nH]3)nc2)n1)C(=O)O` [Example 1-39], the figures for the negative-log IC50 (pIC50) against human CYP4A11 and on human CYP4F2 were 6.38 and 5.01, respectively.

As for `O=C(O)c1cc(COc2ccc(-c3ccn[nH]3)nc2)ccn1` [Example 1-40, 4-[[6-(1H-Pyrazol-5-yl)-3-pyridinyl]oxymethyl]-2-pyridinecarboxylic Acid], the figures for the pIC50 at human CYP4A11 and on human CYP4F2 were 6.24 and 4.82, respectively.

`O=C(O)c1cc(COc2ccc(-c3n[nH]cc3Cl)nc2)ccn1` [Example 1-41, 4-[[6-(4-Chloro-1H-pyrazol-3-yl)-3-pyridinyl]oxymethyl]-2-pyridinecarboxylic Acid]: the values for the pIC50 against human CYP4A11 and against human CYP4F2 were 7.01 and 5.43, respectively.

With `O=C(O)C1CCC(COc2ccc(-c3ccn[nH]3)nc2)CC1` (centres unmarked) [Example 1-42], the pIC50 on human CYP4A11 is 7.28; against human CYP4F2 it was 4.60.

Turning to `CC(C)(CCCCCOc1ccc(-c2ccn[nH]2)nc1)C(=O)O` [Example 1-43, 2,2-Dimethyl-7-[[6-(1H-pyrazol-5-yl)-3-pyridinyl]oxy]heptanoic Acid], the pIC50 on human CYP4A11 was 7.34; on human CYP4F2 it was 4.74.

On to `O=C(O)C1(CCCCCCOc2ccc(-c3ccn[nH]3)nc2)CCCCC1` [Example 1-44], for which the pIC50 against human CYP4A11 is 6.96; at human CYP4F2 it was 6.29.

As to `O=C(O)C1(CCCCCCCOc2ccc(-c3ccn[nH]3)nc2)CCCC1` [Example 1-45], the negative logarithm of the IC50 (pIC50) against human CYP4A11 was 7.34; against human CYP4F2 it was 7.72.

On to `O=C(O)C1(CCCCCCOc2ccc(-c3ccn[nH]3)nc2)CCCC1` [Example 1-46, 1-[6-[[6-(1H-Pyrazol-5-yl)-3-pyridinyl]oxy]hexyl]-1-cyclopentanecarboxylic Acid], for which the results for the negative logarithm of the IC50 (pIC50) against human CYP4A11 and against human CYP4F2 were 7.18 and 6.43, respectively.

Turning to `O=C(O)CCCCCOc1ccc(-c2ccn[nH]2)nc1` [Example 1-47, 6-[[6-(1H-Pyrazol-5-yl)-3-pyridinyl]oxy]hexanoic Acid], the results for the negative logarithm of the IC50 (pIC50) against human CYP4A11 and at human CYP4F2 were 7.17 and 4.85, respectively.

As for `O=C(O)CCCCCCCOc1ccc(-c2ccn[nH]2)nc1` [Example 1-48], the pIC50 against human CYP4A11 was 7.36; against human CYP4F2 it was 5.70.

As for `O=C(O)C1CCC(COc2ccc(-c3ccn[nH]3)nc2)CC1` (centres unmarked) [Example 1-49], the negative logarithm of the IC50 (pIC50) at human CYP4A11 was 6.85; at human CYP4F2, 4.62.

For the molecule `O=C(O)[C@H]1CC[C@@H](COc2ccc(-c3ccn[nH]3)nc2)CC1` [Example 1-50], the pIC50 against human CYP4A11 was 6.77; on human CYP4F2, 4.64.

As for `O=C(O)CCCCCCCCOc1ccc(-c2ccn[nH]2)nc1` [Example 1-51], the pIC50 against human CYP4A11 is 7.27; against human CYP4F2, 6.70.

Take `O=C(O)CCCCCCCCCOc1ccc(-c2ccn[nH]2)nc1` [Example 1-52]: the pIC50 against human CYP4A11 was 7.36; on human CYP4F2, 7.39.

As for `O=C(O)C1CCCC(COc2ccc(-c3ccn[nH]3)nc2)C1` (centres unmarked) [Example 1-54], the figures for the negative logarithm of the IC50 (pIC50) on human CYP4A11 and against human CYP4F2 were 7.24 and 5.47, respectively.

On to `O=C(O)C12CCCC(CCCOc3ccc(-c4ccn[nH]4)nc3)(C1)C2` [Example 1-55], for which the negative logarithm of the IC50 (pIC50) is 7.52 at human CYP4A11 and 5.43 at human CYP4F2.

With `O=C(O)Cn1ccc(-c2cccc(COc3ccc(-c4ccn[nH]4)nc3)c2)cc1=O` [Example 1-58], the pIC50 was 7.07 at human CYP4A11 and 6.19 on human CYP4F2.

As for `CC(C)(CCCCOc1ccc(-c2ccn[nH]2)nc1)C(=O)O` [Example 1-59], the pIC50 against human CYP4A11 is 7.38; against human CYP4F2, 4.77.

For `CC(C)(CCCOc1ccc(-c2ccn[nH]2)nc1)CC(=O)O` [Example 1-60], the negative-log IC50 (pIC50) against human CYP4A11 was 7.42; on human CYP4F2, 4.51.

For the molecule `CC(C)(CCCCCCOc1ccc(-c2ccn[nH]2)nc1)C(=O)O` [Example 1-61, 2,2-Dimethyl-8-[[6-(1H-pyrazol-5-yl)-3-pyridinyl]oxy]octanoic Acid], the values for the pIC50 against human CYP4A11 and at human CYP4F2 were 7.59 and 5.72, respectively.

With `CC(C)(CCCCCCCOc1ccc(-c2ccn[nH]2)nc1)C(=O)O` [Example 1-62], the results for the pIC50 on human CYP4A11 and against human CYP4F2 were 7.64 and 7.02, respectively.

`CC(C)(CCCCCCCCOc1ccc(-c2ccn[nH]2)nc1)C(=O)O` [Example 1-63]: the values for the pIC50 against human CYP4A11 and against human CYP4F2 were 7.44 and 8.05, respectively.

On to `CCC(CC)(CCCCOc1ccc(-c2ccn[nH]2)nc1)C(=O)O` [Example 1-64, 2,2-Diethyl-6-[[6-(1H-pyrazol-5-yl)-3-pyridinyl]oxy]hexanoic Acid], for which the pIC50 on human CYP4A11 was 7.55; against human CYP4F2, 5.12.

Turning to `COc1ccc(COc2ccc(-c3ccn[nH]3)nc2)cc1C(=O)O` [Example 1-65, 2-Methoxy-5-[[6-(1H-pyrazol-5-yl)-3-pyridinyl]oxymethyl]benzoic Acid], the pIC50 was 5.92 at human CYP4A11 and 4.62 on human CYP4F2.

For `CC(C)(Oc1cccc(COc2ccc(-c3ccn[nH]3)nc2)n1)C(=O)O` [Example 1-66], the pIC50 against human CYP4A11 is 6.48; on human CYP4F2 it was < 4.30.

Regarding `CC(C)(OCCOCCCCOc1ccc(-c2ccn[nH]2)nc1)C(=O)O` [Example 1-67], the negative-log IC50 (pIC50) on human CYP4A11 is 6.92; against human CYP4F2, 5.00.

Regarding `O=C(O)C1CCc2cc(COc3ccc(-c4ccn[nH]4)nc3)ccc2O1` (centres unmarked) [Example 1-69], the pIC50 was 7.12 against human CYP4A11 and 5.52 against human CYP4F2.

Turning to `O=C(O)[C@]12CC3C[C@H](C1)[C@H](COc1ccc(-c4ccn[nH]4)nc1)[C@@H](C3)C2` [Example 2-1, trans-4-[[6-(1H-Pyrazol-5-yl)-3-pyridinyl]oxymethyl]-1-adamantanecarboxylic Acid], the pIC50 against human CYP4A11 is 7.64; at human CYP4F2, 4.62.

For `O=C(O)[C@]12CC3C[C@H](C1)[C@@H](COc1ccc(-c4ccn[nH]4)nc1)[C@@H](C3)C2` [Example 2-2, cis-4-[[6-(1H-Pyrazol-5-yl)-3-pyridinyl]oxymethyl]-1-adamantanecarboxylic Acid], the pIC50 is 6.89 against human CYP4A11 and < 4.30 at human CYP4F2.

For `O=C(O)C1(OCCCCCCCOc2ccc(-c3ccn[nH]3)nc2)CCCC1` [Example 2-3], the pIC50 was 7.00 against human CYP4A11 and 7.12 against human CYP4F2.

For the molecule `O=C(O)C1(OCCOCCCCOc2ccc(-c3ccn[nH]3)nc2)CCCC1` [Example 2-4], the negative-log IC50 (pIC50) against human CYP4A11 is 6.70; at human CYP4F2 it was 5.74.

`O=C(O)CCc1ccccc1CCOc1ccc(-c2ccn[nH]2)nc1` [Example 2-5, 3-[2-[2-[[6-(1H-Pyrazol-5-yl)-3-pyridinyl]oxy]ethyl]phenyl]propanoic Acid]: the negative logarithm of the IC50 (pIC50) at human CYP4A11 is 7.82; against human CYP4F2, 5.07.

For `O=C(O)CCC12CCC(COc3ccc(-c4ccn[nH]4)nc3)(CC1)CC2` [Example 2-7], the negative-log IC50 (pIC50) was 7.46 on human CYP4A11 and 5.36 against human CYP4F2.

As for `O=C(CCCC1(C(=O)O)CCCC1)N1CCC[C@@H](COc2ccc(-c3ccn[nH]3)nc2)C1` [Example 3-2], the pIC50 was 6.92 at human CYP4A11 and 6.36 on human CYP4F2.

`O=C(CCC1(C(=O)O)CCCC1)N1CCC(CCOc2ccc(-c3ccn[nH]3)nc2)CC1` [Example 3-3]: the pIC50 at human CYP4A11 is 6.41; against human CYP4F2, 5.64.

`O=C(CCC1(C(=O)O)CCCC1)N1CCCC(CCOc2ccc(-c3ccn[nH]3)nc2)C1` (centres unmarked) [Example 3-4]: the negative logarithm of the IC50 (pIC50) against human CYP4A11 is 5.74; on human CYP4F2 it was 6.59.

For the molecule `CC(=O)N1CCC(CCCCCCOc2ccc(-c3ccn[nH]3)nc2)(C(=O)O)CC1` [Example 3-5], the pIC50 was 5.66 against human CYP4A11 and 5.52 against human CYP4F2.

Regarding `CC(=O)N1CCC(CCCCCCOc2ccc(-c3ccn[nH]3)nc2)(C(=O)O)C1` (centres unmarked) [Example 3-6], the negative logarithm of the IC50 (pIC50) at human CYP4A11 was 6.09; against human CYP4F2 it was 5.57.

With `O=C(O)C1(CCCCCCOc2ccc(-c3ccn[nH]3)nc2)CCS(=O)(=O)CC1` [Example 3-7], the values for the pIC50 on human CYP4A11 and on human CYP4F2 were 5.80 and 5.24, respectively.

Regarding `CC(=O)N1CCC(CCCCCCCOc2ccc(-c3ccn[nH]3)nc2)(C(=O)O)CC1` [Example 3-8], the figures for the pIC50 on human CYP4A11 and against human CYP4F2 were 5.92 and 6.60, respectively.

As to `O=C(O)C1(C(=O)NCCCCCCOc2ccc(-c3ccn[nH]3)nc2)CCCC1` [Example 3-9], the negative logarithm of the IC50 (pIC50) is 6.62 against human CYP4A11 and 6.37 at human CYP4F2.

`CN(CCCCCCOc1ccc(-c2ccn[nH]2)nc1)C(=O)C1(C(=O)O)CCCC1` [Example 3-10]: the values for the negative logarithm of the IC50 (pIC50) against human CYP4A11 and at human CYP4F2 were 7.04 and 6.60, respectively.

Take `O=S(=O)(CCO)c1cccc(COc2ccc(-c3ccn[nH]3)nc2)c1` [Example 3-11]: the results for the pIC50 against human CYP4A11 and against human CYP4F2 were 7.26 and 6.54, respectively.

Regarding `O=C(O)CCCc1cccc(CCOc2ccc(-c3ccn[nH]3)nc2)c1` [Example 4-1, 4-[3-[2-[[6-(1H-Pyrazol-5-yl)-3-pyridinyl]oxy]ethyl]phenyl]butanoic Acid], the figures for the pIC50 on human CYP4A11 and against human CYP4F2 were 7.66 and 6.08, respectively.

As for `O=C(O)CCCc1ccc(CCOc2ccc(-c3ccn[nH]3)nc2)cc1` [Example 4-2], the negative logarithm of the IC50 (pIC50) against human CYP4A11 is 6.60; at human CYP4F2 it was 6.80.
